Test results: US20090258097A1, “EXTRACTS AND COMPOUNDS FROM "AGAPANTHUS AFRICANUS" AND THEIR USE AS BIOLOGICAL PLANT PROTECTING AGENTS” (AGRARFORUM AG, priority 2005, published 2009)

Tests used:
Sporisorium sorghi = test: Sorghum covered kernel smut field trial (seed treatment); assay type: in vivo; conditions: extract 2.0 g/l, Thiram 0.25% (w/w)
Sporisorium cruentum = test: Sorghum loose kernel smut field trial (seed treatment); assay type: in vivo; conditions: extract 2.0 g/l, Thiram 0.25% (w/w)
Fusarium oxysporum = test: In vitro mycelial growth inhibition (agar dilution); assay type: cell-based; conditions: for concentration showing strong antifungal activity: purified compounds
[1] = pure compounds from the most active P-TLC root fraction, following acidification

Row | Compound | % mean smut incidence (Sporisorium sorghi) [b %] | Yield (ton ha^−1) (Sporisorium sorghi) [ab ton ha^−1] | % mean smut incidence (Sporisorium cruentum) [b %] | Yield (ton ha^−1) (Sporisorium cruentum) [ab ton ha^−1] | % mycelial growth inhibition of F. oxysporum (Fusarium oxysporum; [1]) [%] | concentration showing strong antifungal activity (Fusarium oxysporum) | % mycelial growth inhibition of F. oxysporum (Fusarium oxysporum; pure compound from the most active P-TLC aerial plant part fraction) [%]
1 | CN(C)C(=S)SSC(=S)N(C)C [Thiram] | 0 | 2.6 | 0 | 2.1 | – | – | –
2 | CC(=O)Oc1ccc(/C=C/C(=O)c2ccc(OC(C)=O)cc2OC(C)=O)cc1 [Compound 9, trans-4,2′,4′-Tri-O-acetylchalcone] | – | – | – | – | 97 | about 625 μg/ml | –
3 | CC(=O)Oc1cc(OC(C)=O)c2c(c1)OC(c1ccc(OC(C)=O)c(OC(C)=O)c1)CC2=O (centres unmarked) [Compound 8, 5,7,3′4′-tetra-O-acetylflavanone] | – | – | – | – | 93 | about 625 μg/ml | –
4 | 3-[{O-β-D-glucopyranosyl-(1″-3′)-α-L-rhamnosyl-(1″-2′)}-β-D-glucopyranosyloxy]agapanthegenin [Compound 1] | – | – | – | – | 100 | approximately 125 μg/ml | 100
